Ends that are not written are not given here.
Columns and labels:
Long-Evans rats [1] = assay: Rat incisional model, trichrome histological scoring of scar tissue (Beausang); assay type: in vivo; conditions: 21-days post-injury; 0.125 mg and 0.625 mg; vs untreated wounds
Description: Using sterile techniques, longitudinal wounds were incised on shaved dorsal skin of the rats. A 4 cm incision was cut through the panniculus down to the skeletal musculature, and a 250 μL single dose of either 10 mg/mL hyaluronic acid (HA) or HA+DS-SILY was applied to the open wound by a syringe. DS-SILY was tested at 0.5, 1, and 2.5 mg/mL mixed with HA. The incision was then sutured closed and animals were returned to individual cages and monitored for complications. Negative control rats received no treatment and were treated identically. A pilot study was performed (n=3) at time points 3, 7, 10, 14, and 21 days, followed by a higher powered study (n=9) for 21 and 28 day time points. […]
H&E stained samples were examined for inflammation by a board certified pathologies blinded to the treatments following a scale adapted from Simhon et al. Trichrome stained samples were evaluated for scar tissue formation by an observer blinded to the treatments using a method established by Beausang et al. in which collagen orientation, density, and maturation are observed and compared to collagen of healthy tissue. A total of 12 tissue samples were analyzed for each study at each time point. Statistics were analyzed by ANOVA using Design Expert software (StatEase, Minneapolis, Minn.). […]

Long-Evans rats [2] = assay: Rat incisional model, visual scar scoring (visible scar length); assay type: in vivo
Description: Using sterile techniques, longitudinal wounds were incised on shaved dorsal skin of the rats. A 4 cm incision was cut through the panniculus down to the skeletal musculature, and a 250 μL single dose of either 10 mg/mL hyaluronic acid (HA) or HA+DS-SILY was applied to the open wound by a syringe. DS-SILY was tested at 0.5, 1, and 2.5 mg/mL mixed with HA. The incision was then sutured closed and animals were returned to individual cages and monitored for complications. Negative control rats received no treatment and were treated identically. A pilot study was performed (n=3) at time points 3, 7, 10, 14, and 21 days, followed by a higher powered study (n=9) for 21 and 28 day time points.
Photographs of scars were taken at the time of necropsy using a digital camera with predetermined manual settings mounted on a camera stand to standardize focal distance
(FIG. 36). A scale bar was included in each image and was used to determine the visible scar length. At the 21 and 28-day times points, five blinded observers traced the visible scar length using ImageJ software (NIH) to give a quantitative measure of visual scar healing.

collagen I = biological target: T1, collagen I (Bos taurus, UniProt P02453+P02465); assay: Cryo-SEM measurements on collagen I, fibril diameter; assay type: biochemical; conditions: 4 mg/mL collagen, 10:1 collagen:treatment, cryo-SEM 20,000×
T1 construct: purchased Inamed, Freemont, Calif; Nutragen
Description: (§1) Gels were made with Nutragen collagen (Inamed, Freemont, Calif.) at a final concentration of 4 mg/mL collagen. Nutragen stock is 6.4 mg/mL in 10 mM HCl. Gel preparation was performed on ice, and fresh samples were made before each test. The collagen solution was adjusted to physiologic pH and salt concentration, by adding appropriate volumes of 10×PBS (phosphate buffered saline), 1×PBS, and 1M NaOH. For most experiments, samples of DS, decorin, DS-SILY, or DS-Dc13 were added at a 10:1 collagen:treatment molar ratio by a final 1×PBS addition (equal volumes across treatments) in which the test samples were dissolved at appropriate concentrations. In this way, samples are constantly kept at pH 7.4 and physiologic salt concentration. Collagen-alone samples received a 1×PBS addition with no sample dissolved. Fibrillogenesis will be induced by incubating neutralized collagen solutions at 37° C. overnight in a humidified chamber to avoid dehydration. Gel solutions with collagen:treatment molar ratios of other than 10:1 were prepared similarly.
Gels for cryo-SEM were formed, as in EXAMPLE 16, directly on the SEM stage and incubated at 37° C. overnight. The stages were then secured in a cryo-holder and plunged into liquid nitrogen slush. Samples were then transferred to a Gatan Alto 2500 pre-chamber cooled to −170° C. under vacuum. A free-break surface was created with a cooled scalpel, and each sample evaporated under sublimation conditions for 20 min. The sample was coated by platinum sputter coating for 120 s. Samples were transferred to the cryo-stage at −130° C. and regions with similar orientation were imaged for comparison across treatments. Analysis of the images was performed to determine the fibril diameter distribution, presented in histograms adjacent the corresponding image in FIG. 14, and average fibril diameter, FIG. 17 an 18;. Fibril diameter was calculated using ImageJ software (NIH) measuring individual fibrils by hand (drawing a line across fibrils and measuring its length after properly setting the scale). At least 45 independent fibril measurement were recorded for average fibril diameter calculations.

collagen = biological target: T2, collagen (Bos taurus, UniProt P02453+P02465); assay: Fibrillogenesis turbidity assay (absorbance at 313 nm); assay type: biochemical; conditions: 4 mg/mL collagen, 10:1 collagen:treatment unless otherwise indicated
T2 construct: purchased Inamed, Freemont, Calif; Nutragen
Description: as §1
Collagen fibrillogenesis was monitored by measuring turbidity related absorbance at 313 nm providing information on rate of fibrillogenesis and fibril diameter. Gel solutions were prepared as described in EXAMPLE 16 (4 mg/mL collagen, 10:1 collagen:treatment, unless otherwise indicated) and 50 uL/well were added at 4° C. to a 384-well plate. The plate was kept at 4° C. for 4 hours before initiating fibril formation. A SpectraMax M5 at 37° C. was used to measure absorbance at 313 nm at 30 s intervals for 6 hours.
A fibrillogenesis assay as described for DS-SILY, EXAMPLE 19, performed with the conjugate DS-Dc13.

T2 sequence (P02453 162-1217 limits assumed): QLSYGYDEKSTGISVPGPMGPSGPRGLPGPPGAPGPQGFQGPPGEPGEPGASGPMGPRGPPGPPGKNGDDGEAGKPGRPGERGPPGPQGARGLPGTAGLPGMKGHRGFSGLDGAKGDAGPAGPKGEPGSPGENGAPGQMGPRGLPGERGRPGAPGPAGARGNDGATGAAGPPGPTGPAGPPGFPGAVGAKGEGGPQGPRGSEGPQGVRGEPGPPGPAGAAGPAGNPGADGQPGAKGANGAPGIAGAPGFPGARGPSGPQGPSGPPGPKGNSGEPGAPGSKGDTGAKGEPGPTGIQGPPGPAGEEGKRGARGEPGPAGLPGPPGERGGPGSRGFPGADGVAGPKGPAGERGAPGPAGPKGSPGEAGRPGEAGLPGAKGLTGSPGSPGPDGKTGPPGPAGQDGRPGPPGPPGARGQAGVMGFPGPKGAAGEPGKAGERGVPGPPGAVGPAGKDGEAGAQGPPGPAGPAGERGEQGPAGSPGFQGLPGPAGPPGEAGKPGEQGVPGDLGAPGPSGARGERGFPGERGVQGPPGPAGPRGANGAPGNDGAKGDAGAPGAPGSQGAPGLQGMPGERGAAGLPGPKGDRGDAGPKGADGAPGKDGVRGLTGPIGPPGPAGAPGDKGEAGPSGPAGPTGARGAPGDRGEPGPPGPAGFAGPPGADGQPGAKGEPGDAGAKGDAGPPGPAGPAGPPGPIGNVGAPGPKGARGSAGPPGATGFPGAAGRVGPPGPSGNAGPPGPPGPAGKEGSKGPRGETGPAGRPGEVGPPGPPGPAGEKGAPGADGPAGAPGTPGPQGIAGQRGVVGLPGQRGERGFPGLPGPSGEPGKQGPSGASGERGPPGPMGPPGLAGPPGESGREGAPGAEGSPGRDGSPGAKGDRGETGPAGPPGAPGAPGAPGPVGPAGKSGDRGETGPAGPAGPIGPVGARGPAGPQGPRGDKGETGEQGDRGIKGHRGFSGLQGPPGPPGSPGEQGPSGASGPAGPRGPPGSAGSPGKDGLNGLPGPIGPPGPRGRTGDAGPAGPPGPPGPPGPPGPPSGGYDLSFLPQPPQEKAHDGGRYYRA
T2 sequence (P02465 80-1117 limits assumed): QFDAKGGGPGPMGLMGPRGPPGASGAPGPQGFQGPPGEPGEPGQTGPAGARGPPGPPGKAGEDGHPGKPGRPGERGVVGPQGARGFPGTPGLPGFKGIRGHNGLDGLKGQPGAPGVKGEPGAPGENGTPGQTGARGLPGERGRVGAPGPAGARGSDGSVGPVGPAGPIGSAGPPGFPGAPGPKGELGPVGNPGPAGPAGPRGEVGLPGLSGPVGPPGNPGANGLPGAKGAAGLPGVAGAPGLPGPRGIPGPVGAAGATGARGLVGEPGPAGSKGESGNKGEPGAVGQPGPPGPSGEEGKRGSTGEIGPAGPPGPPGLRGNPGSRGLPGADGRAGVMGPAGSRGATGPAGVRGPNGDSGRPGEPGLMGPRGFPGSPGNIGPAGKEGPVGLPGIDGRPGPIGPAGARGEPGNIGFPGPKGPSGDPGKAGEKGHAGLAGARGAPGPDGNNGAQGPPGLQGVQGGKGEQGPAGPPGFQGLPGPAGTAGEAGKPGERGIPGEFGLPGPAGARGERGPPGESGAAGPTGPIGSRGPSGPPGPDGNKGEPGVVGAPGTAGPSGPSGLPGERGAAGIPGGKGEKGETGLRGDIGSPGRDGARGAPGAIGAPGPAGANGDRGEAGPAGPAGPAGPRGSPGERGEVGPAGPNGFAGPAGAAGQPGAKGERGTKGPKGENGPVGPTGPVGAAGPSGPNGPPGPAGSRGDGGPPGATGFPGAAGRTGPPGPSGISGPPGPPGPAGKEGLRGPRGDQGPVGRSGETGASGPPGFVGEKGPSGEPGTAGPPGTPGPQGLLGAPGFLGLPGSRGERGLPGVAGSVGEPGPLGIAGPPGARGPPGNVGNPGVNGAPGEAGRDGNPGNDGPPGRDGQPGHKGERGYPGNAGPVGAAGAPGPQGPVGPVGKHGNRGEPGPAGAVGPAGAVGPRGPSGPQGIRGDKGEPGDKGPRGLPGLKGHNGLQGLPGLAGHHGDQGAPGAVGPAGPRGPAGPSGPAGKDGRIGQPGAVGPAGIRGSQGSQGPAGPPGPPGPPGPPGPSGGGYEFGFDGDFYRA
T1 sequence (P02453 162-1217 limits assumed): as the sequence (P02453 162-1217 limits assumed) above
T1 sequence (P02465 80-1117 limits assumed): as the sequence (P02465 80-1117 limits assumed) above

## DS-SILY: collagen-binding peptidoglycan in which a single SILY peptide was conjugated to dermatan sulfate via PDPH (RRANAALKAGELYKSILYGC; also: single peptide conjugated to dermatan sulfate via PDPH, site not given here)
Long-Evans rats [1]
  histological score for collagen maturity and organization (scar tissue): significantly lower scores
Long-Evans rats [2]; 21 days, both doses (0.125 mg, 0.25 mg)
  visible scar length: decreased visible scar length measured by 5 blinded observers was significant
Long-Evans rats [2]; 28 days, high dose (0.25 mg)
  visible scar length: not significant at 28 days compared to HA control
Collagen I
  average fibril diameter: significant decrease in average fibril diameter
collagen
  rate of fibrillogenesis: decrease the rate of fibrillogenesis

Reference: US20170283458A1, “COLLAGEN-BINDING SYNTHETIC PEPTIDOGLYCANS FOR WOUND HEALING” (Symic Biomedical, Inc., priority 2009, published 2017)
